Laboratory results from ChEMBL document CHEMBL4400517, “Marine natural products as potential anti-tubercular agents” (Eur J Med Chem, 2019).
≈ marks a conversion by molar mass, not a printed value.

target: T1, Phosphotyrosine protein phosphatase (Mycobacterium tuberculosis) (UniProt A0A045ISB3); experiment: Inhibition of Mycobacterium tuberculosis Protein Tyrosine Phosphatase B at 100 uM relative to control; conditions: not given
T1 sequence (whole entry): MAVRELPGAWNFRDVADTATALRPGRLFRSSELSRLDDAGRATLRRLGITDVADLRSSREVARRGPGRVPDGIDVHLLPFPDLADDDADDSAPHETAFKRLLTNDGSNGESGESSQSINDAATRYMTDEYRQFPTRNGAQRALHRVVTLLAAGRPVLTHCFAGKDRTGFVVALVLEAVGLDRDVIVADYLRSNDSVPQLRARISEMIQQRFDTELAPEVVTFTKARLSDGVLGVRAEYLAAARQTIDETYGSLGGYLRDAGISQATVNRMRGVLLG

Question: Which inhibition does the source give for `COC1=CC(=O)c2c(O)c3c(c(O)c2C1=O)C[C@]1(C)OCO[C@@H]1[C@H]3O` here?
Answer: 17.5 to 48.8%

Question: Which inhibition does the source give for `COc1cc(O)c2c(c1O)C(=O)C1=C(C[C@@H](O)[C@@](C)(O)C1)C2=O` here?
Answer: 17.5 to 48.8%

Question: For `COC1=CC(=O)c2c(O)c3c(c(O)c2C1=O)C[C@]1(C)OC(=O)O[C@@H]1[C@H]3O`, which inhibition is on record?
Answer: 17.5 to 48.8%

Question: `CNC1=CC(=O)c2c(O)c3c(c(O)c2C1=O)C[C@](C)(O)[C@H](O)[C@H]3O` was tested. Which inhibition did it give?
Answer: 17.5 to 48.8%

Question: With `COc1cc(O)c2c(c1O)C(=O)c1cc(C)ccc1C2=O` as the compound, how does the inhibition read?
Answer: 17.5 to 48.8%

Question: Which inhibition does the source give for `CCCNC1=CC(=O)c2c(O)c3c(c(O)c2C1=O)C[C@](C)(O)[C@H](O)[C@H]3O` here?
Answer: 17.5 to 48.8%

Question: How did the inhibition turn out when `COC1=CC(=O)c2c(cc3c(c2O)C[C@@H](O)[C@@](C)(O)C3)C1=O` was run?
Answer: 17.5 to 48.8%

Question: Which inhibition does the source give for `CNC1=CC(=O)c2c(O)c3c(c(O)c2C1=O)C[C@](C)(O)[C@H](O)C3` here?
Answer: 9.7%

Question: How did the inhibition turn out when `COC1=CC(=O)c2c(O)c3c(c(O)c2C1=O)C[C@]1(C)OC(C)(C)O[C@@H]1[C@H]3O` was run?
Answer: 17.5 to 48.8%

Question: `COC1=CC(=O)c2c(O)c3c(c(O)c2C1=O)C[C@](C)(O)[C@H](O)[C@H]3O` was tested. Which inhibition did it give?
Answer: 37%

Question: How did the inhibition turn out when `CCCCCCSC1=C(SCCCCCC)C(=O)c2c(O)c3c(c(O)c2C1=O)C[C@](C)(O)[C@H](O)[C@H]3O` was run?
Answer: 56.2%

Question: `COC1=CC(=O)c2c(O)c3c(c(O)c2C1=O)C[C@]1(C)OC(C=C(C)C)O[C@@H]1[C@H]3O` (stereo not given in full) was tested. Which inhibition did it give?
Answer: 17.5 to 48.8%

system: Mycolicibacterium vaccae; experiment: Antimycobacterial activity against Mycobacterium vaccae assessed as diameter of inhibition zone at 50 ug/disc; format: functional; conditions: read-out: IZ

Question: With `CC[C@H]1/C=C/[C@H](O)[C@H](C=C(C)C)OC(=O)[C@@]2(C)C=CC(=O)Nc3c2c(O)c2c(c(O)c(C)cc2c3O)C(=O)CC1` as the compound, how does the zone of inhibition at 50 µg/disc read?
Answer: 11 mm

system: Mycobacterium tuberculosis; experiment: Antimycobacterial activity against Mycobacterium tuberculosis H37Rv assessed as inhibition of mycobacterial growth at 12.5 ug/ml relative to control; format: functional; conditions: not given

Question: `CC(C)=CCC[C@H](C)[C@H]1CC[C@@H](C)c2c1ccc1ncoc21` was tested. Which inhibition at 12.5 µg/mL did it give?
Answer: 66%

Question: With `CC1(C)CCC[C@]2(C)[C@H]3C(C#N)=C4C=C(O)C(=O)C=C4O[C@@]3(C)CC[C@@H]12` as the compound, how does the inhibition at 12.5 µg/mL read?
Answer: 90%

Question: For `CC(C)=C[C@@H]1C[C@H](C)[C@H]2CC[C@H](C)c3c2c1c(C)c1ncoc31` [PSEUDOPTEROXAZOLE], which inhibition at 12.5 µg/mL is on record?
Answer: 97%

Question: With `CC1(C)CCC[C@]2(C)[C@H]3[C@H](C#N)c4cc(O)c(O)cc4O[C@@]3(C)CC[C@@H]12` as the compound, how does the inhibition at 12.5 µg/mL read?
Answer: 96%

Question: With `CC1(C)CCC[C@]2(C)[C@H]3C=C4C=C(O)C(=O)C=C4O[C@@]3(C)CC[C@@H]12` [PUUPEHENONE] as the compound, how does the inhibition at 12.5 µg/mL read?
Answer: 99%

system: Mycobacterium tuberculosis; experiment: Antimycobacterial activity against Mycobacterium tuberculosis H37Rv; format: functional, organism-based; conditions: not given

Question: For `C=C(CC[C@@H](C)[C@H]1CC[C@H]2[C@@H]3C(C=O)=C4C[C@@H](O)CC[C@]4(C)[C@H]3CC[C@]12C)C(C)C` [PARGUESTEROL A], which MIC is on record?
Answer: 18.9 µM (≈ 7.81 µg/mL)

Question: With `CO[C@H]1/C=C/O[C@@]2(C)Oc3c(C)c(O)c4c(O)c(c(/C=N/N5CCN(C)CC5)c(O)c4c3C2=O)NC(=O)/C(C)=C\C=C\[C@H](C)[C@H](O)[C@@H](C)[C@@H](O)[C@@H](C)[C@H](OC(C)=O)[C@@H]1C` [RIFAMPIN] as the compound, how does the IC50 read?
Answer: 550 nM

Question: `COC(=O)/C1=C/c2c([nH]c3ccccc23)/C(C(=O)OC)=C\c2c1[nH]c1ccccc21` [CAULERPIN] was tested. Which IC50 did it give?
Answer: 240 nM

Question: `COC(=O)N[C@H]1[C@@H](C)O[C@@H](O[C@H]2C/C=C(\C)[C@@H]3C=C[C@@H]4[C@@H](O[C@@H]5C[C@@H](O[C@@H]6C[C@@H](O)[C@@H](O[C@H]7C[C@@H](C)[C@H](OC)[C@H](O)C7)[C@H](C)O6)[C@@H](O)[C@H](C)O5)[C@@H](C)C[C@H](C)[C@H]4[C@]3(C)C(=O)C3=C(O)[C@@]4(C[C@@H](C)C(CO)=C[C@H]4/C=C/2C)OC3=O)C[C@]1(C)N` was tested. Which MIC did it give?
Answer: 27.7 µM (≈ 32 µg/mL)

Question: For `O=C1CCCN2[C@@H](CC1)C[C@]13CN4CCCC/C=C\CC[C@](O)(C=C(c5nccc6c5[nH]c5ccc(O)cc56)[C@@H]1CC4)[C@H]23`, which MIC is on record?
Answer: 52.1 µM (≈ 30.2 µg/mL)

Question: Which MIC does the source give for `C=C(CC[C@@H](C)[C@H]1CC[C@H]2[C@@H]3CC=C4C[C@@H](O)CC[C@]4(C)[C@H]3CC[C@]12C)C(C)C` here?
Answer: 302 µM (≈ 120 µg/mL)

Question: For `O=CC1=C[C@@]2(O)CC/C=C\CCCCN3CC[C@@H]1[C@]1(C[C@@H]4/C=C\CCCCN4[C@H]12)C3` [IRCINAL], which MIC is on record?
Answer: 73.7 µM (≈ 30.2 µg/mL)

Question: How did the MIC turn out when `COC(=O)N[C@H]1[C@@H](C)O[C@@H](O[C@H]2C/C=C(\C)[C@@H]3C=C[C@@H]4[C@@H](O[C@@H]5C[C@@H](O[C@@H]6C[C@@H](O)[C@@H](O[C@H]7C[C@@H](C)[C@H](OC)[C@H](O)C7)[C@H](C)O6)[C@@H](O)[C@H](C)O5)[C@@H](C)C[C@H](C)[C@H]4[C@]3(C)C(=O)C3=C(O)[C@@]4(C[C@@H](C)C(CO)=C[C@H]4/C=C/2C)OC3=O)C[C@]1(C)[N+](=O)[O-]` was run?
Answer: 13.5 µM (≈ 16 µg/mL)

Question: Which MIC does the source give for `COC(=O)N[C@H]1[C@@H](C)O[C@@H](O[C@H]2C/C=C(\C)[C@@H]3C=C[C@@H]4[C@@H](O[C@@H]5C[C@@H](O[C@@H]6C[C@@H](O)[C@@H](O[C@H]7C[C@@H](C)[C@H](OC)[C@H](O)C7)[C@H](C)O6)[C@@H](O)[C@H](C)O5)[C@@H](C)C[C@H](C)[C@H]4[C@]3(C)C(=O)C3=C(O)[C@@]4(C[C@@H](C)C(COC(C)=O)=C[C@H]4/C=C/2C)OC3=O)C[C@]1(C)N` here?
Answer: 26.7 µM (≈ 32 µg/mL)

Question: Which MIC does the source give for `O[C@]12C=C(c3nccc4c3[nH]c3ccccc34)[C@@H]3CCN(CCCC/C=C\CC1)C[C@@]31C[C@@H]3/C=C\CCCCN3[C@H]12` [MANZAMINE A] here?
Answer: 1.64 µM (≈ 0.9 µg/mL)

Question: `O=C1CCCN2[C@@H](CC1)C[C@]13CN4CCCC/C=C\CC[C@](O)(C=C(c5nccc6c5[nH]c5ccccc56)[C@@H]1CC4)[C@H]23` was tested. Which MIC did it give?
Answer: 6.74 µM (≈ 3.81 µg/mL)

Question: For `O=C1CCCN2[C@@H](CC1)C[C@]13CN4CCCC/C=C\CC[C@](O)(C=C(c5nccc6c5[nH]c5c(O)cccc56)[C@@H]1CC4)[C@H]23`, which MIC is on record?
Answer: 0.69 µM (≈ 0.401 µg/mL)

Question: Which MIC does the source give for `CC(=O)O[C@H]1C[C@@]2(C)[C@@H](CC[C@H]3[C@@]4(C)C=CC(=O)[C@@H](C)C4[C@H](OC(C)=O)C(=O)[C@@]32C)/C1=C(\CCC=C(C)C)C(=O)O` (stereo not given in full) here?
Answer: 0.89 µM (≈ 0.506 µg/mL)

Question: With `C=C(CC[C@@H](C)[C@H]1CC[C@H]2[C@@H]3[C@@H](C=O)[C@]4(O)C[C@@H](O)CC[C@]4(C)[C@H]3CC[C@]12C)C(C)C` as the compound, how does the MIC read?
Answer: 26.1 µM (≈ 11.2 µg/mL)

Question: What does the source list for `CC(=O)O[C@H]1C[C@H]2[C@]3(C)CC[C@H]4C(C)(C)CCC[C@]4(C)[C@H]3C[C@@H](O)[C@]2(C)[C@@H]2C1=CC[C@H]2OC(C)=O`?
Answer: IC50: 2670 nM; MIC: 12.8 µM (≈ 6.23 µg/mL)

system: Mycobacterium tuberculosis; experiment: Antimycobacterial activity against Mycobacterium tuberculosis; format: functional; conditions: not given

Question: For `Cc1cc(O)c2c3c(ccc2c1)C(=O)c1c(ccc([C@H]2C[C@@H](O)[C@H](O)[C@@H](C)O2)c1O)C3=O`, which MIC is on record?
Answer: 14.4 µM (≈ 6.26 µg/mL)

Question: For `COC1=C(Br)C(O)[C@@]2(C=C1Br)CC(C(=O)NCCCCNC(=O)C1=NO[C@]3(C=C(Br)C(OC)=C(Br)C3O)C1)=NO2` (stereo not given in full), which MIC is on record?
Answer: 7.99 µM (≈ 6.54 µg/mL)

Question: With `CSC1=CC2=C(C(=O)c3ccc([C@H]4C[C@@H](O)[C@H](O)[C@@H](C)O4)c(O)c3C2=O)[C@@]2(O)C(=O)C=C(C)C[C@@]12O` as the compound, how does the MIC read?
Answer: 24.3 µM (≈ 12.5 µg/mL)

Question: How did the MIC turn out when `CSC1=CC2=C(C(=O)c3ccc([C@H]4C[C@@H](O)[C@H](O[C@H]5CC[C@H](O[C@H]6C[C@@H](O)[C@H](O)[C@@H](C)O6)[C@H](C)O5)[C@@H](C)O4)c(O)c3C2=O)[C@@]2(O[C@H]3CC[C@H](O)[C@H](C)O3)C(=O)C[C@](C)(O)C[C@@]12O` was run?
Answer: 14 µM (≈ 12.5 µg/mL)

Question: `COC(=O)c1c(C)cc2c(c1O)[C@@]1(O)C(=O)c3cc4c(c(O)c3C(=O)[C@@]1(OC)CC2)C(=O)C=C(N[C@H]1O[C@@H](C)[C@H](O)[C@@H](O)[C@H]1OC)C4=O` was tested. Which MIC did it give?
Answer: 1.5 µM (≈ 1 µg/mL)

Question: `CSC1=CC2=C(C(=O)c3ccc([C@H]4C[C@@H](O)[C@H](O)[C@@H](C)O4)c(O)c3C2=O)[C@@]2(O)C(=O)C[C@](C)(O)C[C@@]12O` was tested. Which MIC did it give?
Answer: 5.88 µM (≈ 3.13 µg/mL)
